In US9796719B2, “Compounds and pharmaceutical compositions thereof for the treatment of inflammatory disorders” (GALAPAGOS NV, priority 2013, dated 2017):

Columns and labels:
[1] = target: T1, hENPP2 (UniProtKB/SwissProt Sequence ref Q13822) (Homo sapiens (Human), UniProt Q13822); assay: LPC hENPP2 assay (choline release, LPC as substrate); assay type: biochemical
Method in brief: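 Detection is coupled: choline oxidase produces peroxide, which HRP uses to form quinoneimine dye from TOOS and 4-aminoantipyrine, read at 555 nm. The reaction is stopped with 20 mM EGTA in the developer mix, then incubated 30 min at room temperature; inhibition lowers signal.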

[2] = tested on: recruited BALF cells; assay: LPS induced lung inflammation model (in-LPS test); assay type: in vivo, mouse; settings: versus inLPS Vehicle group
Experimental: The aim of the assay is to assess the effect of a test compound in a mouse model of acute lung inflammation induced by intranasal instillation of LPS. The impact on the induced cells recruitment in lung is evaluated by measurement of white cells count in broncho-alveolar lavage (BAL) fluid with VetABC device (medical solution gmbh, Rothusstrasse 23, 6331 Hunenberg, Switzerland).
The animals (BALB/c J mice, 18-20 g) are obtained from Harlan Laboratories (Maison-Alfort, France). The animals are maintained on 12 hours light/dark cycle at 22° C. with ad libitum access to tap water and food. Litters are changed twice a week. For each tested compound, a group of 10 subjects is used. In addition to the test compound-treated groups, a vehicle+LPS control group (inLPS), a non-treated group (intact), and a positive control dexamethasone treated group (DEX) are used.
LPS is dissolved in saline solution in order to obtain a final 10 μg/50 μL solution for intranasal instillation, and administered at 50 μL/mouse by intranasal instillation.
The test compounds are prepared in 15 mL PEG200 (9 mL)/H2O (6 mL) to be dosed in a range of 0.3, 1, 3, 10, and 30 mg/kg, and then kept at room temperature in the dark, and are administered once (qd) or twice daily (bid) over 2 days.
Dexamethasone (10 mg/kg, bid, po) is used as a positive control.
On day 1, mice are anaesthetized by isoflurane inhalation. During breathing, LPS solution is instilled intra-nasally and mice are monitored until complete recovery from anaesthesia.
On day 2, mice are anaesthetized by intra-peritoneal injection (under a volume of 10 mL/kg) of anaesthetic solution (18 mL NaCl 0.9%+0.5 mL xylazine (5 mg/kg)+1.5 mL ketamine (75 mg/kg)).
The trachea is canulated with a catheter, and BAL is performed by 2×0.75 mL sterile PBS. The BAL fluid removed is shaked gently at room temperature before centrifugation at 1500 r.p.m. during 10 min at 4° C.
The supernatant is removed and the cell pellet is suspended in 200 μL of PBS, kept on ice and total cell count is processed with VetABC device. Finally, mice are sacrificed under anaesthesia.
For each readout, mean and sem are calculated. A difference statistically significant between intact or treated groups and inLPS Vehicle group is evaluated with Prism® software using a one-way ANOVA (for treatment groups) followed by a Student test. *: p<0.05; **: p<0.01; ***: p<0.001 versus inLPS Vehicle group.

[3] = target: T1, hENPP2; assay: FS3 hENPP2 assay (fluorogenic substrate FS-3); assay type: biochemical; settings: hENPP2, FS-3 as substrate
Method in brief: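 Compound dilutions (1/5 steps, top concentration as added 20 μM) were preincubated 30 min at room temperature with hENPP2 (0.4 or 0.64 μg/mL final) in pH 8.0 Tris buffer containing NaCl, KCl, MgCl2, CaCl2 and 0.1% fatty-acid-free BSA. FS-3 (0.75 μM as added) was then hydrolysed for 30 min at 30 °C, and fluorescence was read at 485/520 nm.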

[4] = tested on: LPA 18:2; assay: Rat whole blood (plasma) LPA assay; assay type: biochemical
Experimental: Whole blood is collected from rats or mouse by exsanguinations on sodium heparin tube, then after centrifugation at 3000 rpm for 15 min at 4° C., plasma is stored at −80° C. Compounds are diluted in DMSO in concentration dependent manner then 0.5 μL are dispensed into 96-wells plate placed in ice. Plasma is defrosted on ice then 49.5 μL of plasma are added into the well containing 0.5 μL of compound (1% DMSO final). Plates are covered with a lid in polypropylene and incubated at +37° C., 5% CO2, for 2 h under gentle shaking (except controls which are stored at −20° C.).
At the end of the incubation, controls are defrosted in ice and transferred in the incubated plates for LC-MS/MS analysis with a non GLP-validated method. For the analysis, plasma proteins from a 10 μL incubated plates are precipitated with an excess of methanol containing the internal standard, LPA 17:0. After centrifugation, the corresponding supernatant is injected on a C18 column. Analytes are eluted out of the column under isocratic conditions. An API5500 QTRAP mass spectrometer (ABSciex™) is used for the detection of LPA 18:2. No calibration curve is prepared for LPA 18:2, however relative quantities are evaluated based on the peak area.

| Structure (SMILES) | IC50 [1] | Effect significance on recruited BALF cells ([2]; 10 mg/kg bid po) | IC50 [3] | Effect significance on recruited BALF cells ([2]; 3 mg/kg bid po) | IC50 [4] | Effect significance on recruited BALF cells ([2]; 30 mg/kg bid po) |
| --- | --- | --- | --- | --- | --- | --- |
| CCc1nc2ccc(N3CCN(CC(=O)N4CC[C@H](O)C4)CC3)nn2c1N(C)c1nc(-c2ccc(F)cc2)cs1 [Compound 34, (S)-2-(4-(2-ethyl-3-((4-(4-fluorophenyl)thiazol-2-yl)(methyl)amino)imidazo[1,2-b]pyridazin-6-yl)piperazin-1-yl)-1-(3-hydroxypyrrolidin-1-yl)ethanone] | 100 to 500 nM | * (*: p<0.05) | 0.01 to 25 nM | – | – | – |
| CCc1nc2ccc(N3CCN(CC(=O)N(C)C)CC3)nn2c1N(C)c1nc(-c2ccc(F)cc2)c(C#N)s1 [Compound 44, 2-(4-(3-((5-cyano-4-(4-fluorophenyl)thiazol-2-yl)(methyl)amino)-2-ethylimidazo[1,2-b]pyridazin-6-yl)piperazin-1-yl)-N,N-dimethylacetamide] | 0.01 to 100 nM | – | – | ** (**: p<0.01) | – | – |
| CCc1nc2cnc(N3CCN(CC(=O)N4CC(O)C4)CC3)cn2c1N(C)c1ncc(C#N)c(-c2ccc(F)cc2)n1 [Cpd 19, 2-((2-ethyl-6-(4-(2-(3-hydroxyazetidin-1-yl)-2-oxoethyl)piperazin-1-yl)imidazo[1,2-a]pyrazin-3-yl)(methyl)amino)-4-(4-fluorophenyl) pyrimidine-5-carbonitrile] | > 1000 nM | – | > 100 nM | – | > 1000 nM | – |
| CCc1nc2cnc(C3CCN(CC(=O)N4CC(O)C4)CC3)cn2c1N(C)c1nc(-c2ccc(F)cc2)c(C#N)s1 [Cpd 23, 2-((2-ethyl-6-(1-(2-(3-hydroxyazetidin-1-yl)-2-oxoethyl)piperidin-4-yl)imidazo[1,2-a]pyrazin-3-yl)(methyl)amino)-4-(4-fluorophenyl) thiazole-5-carbonitrile] | 100 to 500 nM | – | 0.01 to 25 nM | – | 100 to 500 nM | – |
| CCc1nc2cnc(C3CCN(CC(=O)N4CC[C@@H](O)C4)CC3)cn2c1N(C)c1nc(-c2ccc(F)cc2)c(C#N)s1 [Cpd 24, (R)-2-((2-ethyl-6-(1-(2-(3-hydroxypyrrolidin-1-yl)-2-oxoethyl)piperidin-4-yl)imidazo[1,2-a]pyrazin-3-yl)(methyl)amino)-4-(4-fluorophenyl) thiazole-5-carbonitrile] | 100 to 500 nM | – | 0.01 to 25 nM | – | 0.01 to 100 nM | – |
| CCc1nc2cnc(C3CCN(CC(=O)N4CC[C@H](O)C4)CC3)cn2c1N(C)c1nc(-c2ccc(F)cc2)c(C#N)s1 [Cpd 25, (S)-2-((2-ethyl-6-(1-(2-(3-hydroxypyrrolidin-1-yl)-2-oxoethyl)piperidin-4-yl)imidazo[1,2-a]pyrazin-3-yl)(methyl)amino)-4-(4-fluorophenyl) thiazole-5-carbonitrile] | 100 to 500 nM | – | 0.01 to 25 nM | – | 0.01 to 100 nM | – |
| CCc1nc2ccc(N3CCN(CC(=O)N4CC[C@@H](O)C4)CC3)nn2c1N(C)c1nc(-c2ccc(F)cc2)cs1 [Cpd 33, (R)-2-(4-(2-ethyl-3-((4-(4-fluorophenyl)thiazol-2-yl)(methyl)amino)imidazo[1,2-b]pyridazin-6-yl)piperazin-1-yl)-1-(3-hydroxypyrrolidin-l-yl)ethanone] | 100 to 500 nM | ** (**: p<0.01) | 0.01 to 25 nM | – | – | – |
| CCc1nc2ccc(N3CCN(CC4CNC(=O)O4)CC3)nn2c1N(C)c1nc(-c2ccc(F)cc2)cs1 (stereo not shown) [Cpd 40, 5-((4-(2-ethyl-3-((4-(4-fluorophenyl)thiazol-2-yl)(methyl)amino)imidazo[1,2-b]pyridazin-6-yl)piperazin-1-yl)methyl) oxazolidin-2-one] | 100 to 500 nM | – | 0.01 to 25 nM | – | 100 to 500 nM | – |
| CCc1nc2ccc(N3CCN(CC(=O)N(C)C)CC3)nn2c1N(C)c1nc(-c2ccc(F)cc2)cs1 [Cpd 42, 2-(4-(2-ethyl-3-((4-(4-fluorophenyl)thiazol-2-yl)(methyl)amino)imidazo[1,2-b]pyridazin-6-yl)piperazin-1-yl)-N,N-dimethylacetamide] | 100 to 500 nM | – | 0.01 to 25 nM | *** (***: p<0.001) | 100 to 500 nM | *** (***: p<0.001) |
| CCc1nc2ccc(N3CCN(S(=O)(=O)CCCN(C)C)[C@H](CO)C3)nn2c1N(C)c1nc(-c2ccc(F)cc2)cs1 [Cpd 63, (S)-(1-(3-(dimethylamino)propylsulfonyl)-4-(2-ethyl-3-((4-(4-fluorophenyl)thiazol-2-yl)(methyl)amino)imidazo[1,2-b]pyridazin-6-yl)piperazin-2-yl)methanol] | 0.01 to 100 nM | – | 0.01 to 25 nM | – | 0.01 to 100 nM | – |
| CCc1nc2ccc(C3CCN(CC(=O)N4CC(O)C4)CC3)nn2c1N(C)c1nc(-c2ccc(F)cc2)cs1 [Cpd 201, 2-(4-(2-ethyl-3-((4-(4-fluorophenyl)thiazol-2-yl)(methyl)amino)imidazo[1,2-b]pyridazin-6-yl)piperidin-1-yl)-1-(3-hydroxyazetidin-1-yl)ethanone] | 100 to 500 nM | ** (**: p<0.01) | 0.01 to 25 nM | – | – | – |
| CCc1nc2ccc(C3CCN(CC(=O)N4CC(O)C4)CC3)nn2c1N(C)c1cccc(-c2ccc(F)cc2C#N)n1 [Cpd 213, 2-(6-((2-ethyl-6-(1-(2-(3-hydroxyazetidin-1-yl)-2-oxoethyl)piperidin-4-yl)imidazo[1,2-b]pyridazin-3-yl)(methyl)amino)pyridin-2-yl)-5-fluorobenzonitrile] | 0.01 to 100 nM | – | 0.01 to 25 nM | – | 100 to 500 nM | – |
| CCc1nc2ccc(C3CCN(CC(=O)N4CC(O)C4)CC3)nn2c1N(C)c1ccnc(-c2ccc(F)cc2)n1 [Cpd 216, 2-(4-(2-ethyl-3-((2-(4-fluorophenyl)pyrimidin-4-yl)(methyl)amino)imidazo[1,2-b]pyridazin-6-yl)piperidin-1-yl)-1-(3-hydroxyazetidin-1-yl)ethanone] | 500 to 1000 nM | – | 0.01 to 25 nM | – | > 1000 nM | – |
| CCc1nc2ccc(C3CCN(CC(=O)N4CC(O)C4)CC3)nn2c1N(C)c1ccc(C#N)c(-c2ccc(F)cc2)n1 [Cpd 218, 6-((2-ethyl-6-(1-(2-(3-hydroxyazetidin-1-yl)-2-oxoethyl)piperidin-4-yl)imidazo[1,2-b]pyridazin-3-yl)(methyl)amino)-2-(4-fluorophenyl) nicotinonitrile] | 100 to 500 nM | – | 0.01 to 25 nM | – | 100 to 500 nM | – |
